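Grown in 96-well plates, cells were treated for 48 hours with each compound at five concentrations. Insufficient inhibition: endpoint recorded as highest concentration tested. TGI: concentration producing complete growth inhibition.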
Experiments:
Test in all cases: NCI anticancer screen, dose series, 48 h
TK-10 renal = system: TK-10 renal
SK-MEL-5 melanoma = system: SK-MEL-5 melanoma
OVCAR-3 ovarian = system: OVCAR-3 ovarian
HCT-116 colon = system: HCT-116 colon
UACC-62 melanoma = system: UACC-62 melanoma
SNB-19 CNS = system: SNB-19 CNS
SNB-75 CNS = system: SNB-75 CNS
SW-620 colon = system: SW-620 colon
RPMI-8226 leukemia = system: RPMI-8226 leukemia
SN12C renal = system: SN12C renal
HL-60(TB) leukemia = system: HL-60(TB) leukemia
DU-145 prostate = system: DU-145 prostate
PC-3 prostate = system: PC-3 prostate
K-562 leukemia = system: K-562 leukemia
T-47D breast = system: T-47D breast
HOP-62 NSCLC = system: HOP-62 NSCLC
A549 NSCLC = system: A549 NSCLC
U251 CNS = system: U251 CNS
SF-268 CNS = system: SF-268 CNS
NCI-H522 lung = system: NCI-H522 lung

SMILES	TGI (TK-10 renal) [µM]	TGI (SK-MEL-5 melanoma) [µM]	TGI (OVCAR-3 ovarian) [µM]	TGI (HCT-116 colon) [µM]	TGI (UACC-62 melanoma) [µM]	TGI (SNB-19 CNS) [µM]	TGI (SNB-75 CNS) [µM]	TGI (SW-620 colon) [µM]	TGI (RPMI-8226 leukemia) [µM]	TGI (SN12C renal) [µM]	TGI (HL-60(TB) leukemia) [µM]	TGI (DU-145 prostate) [µM]	TGI (PC-3 prostate) [µM]	TGI (K-562 leukemia) [µM]	TGI (T-47D breast) [µM]	TGI (HOP-62 NSCLC) [µM]	TGI (A549 NSCLC) [µM]	TGI (U251 CNS) [µM]	TGI (SF-268 CNS) [µM]	TGI (NCI-H522 lung) [µM]
CC(=O)/C(N=Nc1ccc(-n2c(C)nc3ccc(Br)cc3c2=O)cc1)=C(/C)O	> 100	> 100	> 100	> 100	> 100	> 100	77	> 100	> 100	> 100	> 100	> 100	> 100	> 100	> 100	> 100	> 100	> 100	> 100	–
CC(C)C(C/C=C1/CC(CO)(COC(=O)C(C)(C)C)OC1=O)C(C)C (centres undefined)	18	20.7	29.9	27.5	26	26.1	21.1	19	–	23.3	16.2	23.4	21.1	24.9	23.3	18.8	15.3	27.5	23.5	27.6
CN(C(=O)[C@@H](NC(=O)OC(C)(C)C)c1ccccc1)[C@H]1CCCC[C@@H]1N1CCCC1	> 100	> 100	> 100	> 100	> 100	> 100	–	> 100	> 100	> 100	> 100	> 100	> 100	> 100	> 100	> 100	> 100	> 100	> 100	> 100
O=C1N(CN2CCOCC2)CN(CN2CCOCC2)C(=O)N1Cc1ccc(-c2ccc(CN3C(=O)N(CN4CCOCC4)CN(CN4CCOCC4)C3=O)cc2)cc1	43.4	> 38.9	30	29.7	37.7	31.2	49.6	30.7	–	–	–	40.1	> 79.5	69	> 100	> 57.8	57.6	> 70.8	59.3	35.4
CC(C)Oc1c(C2(c3ccccc3O)SCCCS2)c(=O)c1=O	> 100	> 100	> 100	> 100	> 100	> 100	> 100	> 100	–	> 100	> 100	> 100	> 100	–	> 100	> 100	> 100	> 100	> 100	58.9
COCOc1cc(OC)c(Br)cc1C/C(=N/O)C(=O)OC	> 100	> 100	> 100	> 100	> 100	> 100	59.7	> 100	–	> 100	> 100	> 100	> 100	> 100	70.3	> 100	> 100	> 100	> 100	> 100
O=C(/C=c1\oc(=O)/c(=C/C(=O)c2ccc(Cl)cc2)oc1=O)c1ccc(Cl)cc1	> 100	> 100	> 100	> 100	> 100	> 100	–	–	> 100	> 100	> 100	> 100	> 100	> 100	> 100	> 100	> 100	> 100	> 100	72.9
CC(C)(O)/C=C\P(C)(=O)c1ccccc1 (centres undefined)	> 100	> 100	> 100	> 100	> 100	> 100	> 100	> 100	> 100	> 100	–	> 100	> 100	> 100	> 100	> 100	> 100	> 100	> 100	> 100
Cc1ccc(C(=O)OC(C)C)cc1N=NN(C)C	> 100	> 100	> 100	> 100	> 100	> 100	–	> 100	> 100	> 100	> 100	> 100	> 100	> 100	> 100	> 100	> 100	> 100	> 100	> 100
OC12CC3c4ccccc4NC3C3Oc4cccc5c4C31CCN(CC1CC1)C2C5 (centres undefined)	31.1	31.5	30.7	33.5	33.3	36.8	31.5	39.1	48.2	34.4	–	36.5	32.1	52.6	42.6	32.8	38.3	31.1	41.1	39.7
CCN(CC)CCSc1n[nH]c(-c2c[nH]c3nc(C)ccc3c2=O)n1	> 100	> 100	> 100	> 100	> 100	> 100	–	> 100	> 100	> 100	> 100	> 100	> 100	> 100	> 100	> 100	> 100	> 100	> 100	> 100
CCOC(=O)CCSS(=O)(=O)C(F)(F)F	> 100	> 100	> 100	> 100	> 100	> 100	> 100	> 100	> 100	> 100	> 100	> 100	> 100	–	> 100	> 100	> 100	> 100	–	–
COC(=O)/C=C\[C@@H]1[C@H](C)N1S(=O)(=O)c1ccc(C)cc1 (some centres undefined)	> 100	> 100	> 100	> 100	> 100	> 100	–	> 100	> 100	> 100	> 100	> 100	> 100	> 100	> 100	> 100	> 100	> 100	> 100	> 100
COc1cc(CNc2nc3ccccc3n2Cc2ccccc2)cc(CN2CCOCC2)c1O	65.9	34.2	56.6	41.7	45.2	> 100	83.9	> 100	> 100	> 100	–	> 100	99.5	53.1	> 100	65.2	> 100	93.1	> 100	78.2
OC1CSCCCSCCSCCCSC1	> 100	> 100	> 100	> 100	> 100	> 100	> 100	> 100	> 100	> 100	–	> 100	> 100	> 100	> 100	> 100	> 100	> 100	> 100	> 100
CCCCCCCC/C=C\CCCCCCCC(=O)OC[C@]1(CO)CCC(=O)O1	> 100	> 100	> 100	> 100	> 100	> 100	> 100	> 100	–	> 100	–	> 100	> 100	> 100	> 100	> 100	> 100	> 100	> 100	> 100
Brc1cccc(Nc2ncnc3sc4c(c23)CCC(Nc2cccc(Br)c2)C4)c1 (centres undefined)	> 100	> 100	> 100	> 100	> 100	> 100	> 100	> 100	–	> 100	–	> 100	> 100	> 100	> 100	> 100	> 100	> 100	> 100	> 100
CC1(C)C(=O)N(O)C(C)(C)N1N=O	> 10	–	> 10	> 10	–	> 10	–	> 10	> 10	> 10	> 10	> 10	> 10	> 10	> 10	> 10	> 10	> 10	> 10	> 10
COc1cc(/C=C2\N=C(c3ccccc3)N(c3nc4cc(C)c(C)cc4s3)C2=O)cc(OC)c1OC	> 100	> 100	49.1	50.4	> 100	> 100	60	> 100	> 100	99.1	39.7	> 100	> 100	> 100	> 100	66.6	> 100	66.1	> 100	–
CC(=O)c1cccc(Nc2c3ccccc3nc3occc23)c1	94.1	23	5.99	18.4	27.7	> 100	–	–	15.9	> 100	12.4	> 100	> 100	> 100	28	20.6	> 100	> 100	> 100	4.62

Source: PubChem BioAssay (NCI)
